Measurements reported in ChEMBL document CHEMBL4622904, “The discovery of azetidine-piperazine di-amides as potent, selective and reversible monoacylglycerol lipase (MAGL) inhibitors” (Bioorg Med Chem Lett, 2020).
Calls of active or inactive are those of the source. The rule behind the calls is not given here.

Legend:
[1] = Oral bioavailability in rat at 10 mg/kg; assay type: ADME, organism-based; conditions: in vivo
[2] = Tmax in rat at 10 mg/kg, po; assay type: ADME, organism-based; conditions: in vivo
[3] = Cmax in rat at 10 mg/kg, po; assay type: ADME, organism-based; design: dose 10 mg/kg, route oral; conditions: in vivo
[4] = test system: Rattus norvegicus; assay: Reversal of complete freund's adjuvant-induced thermal hyperalgesia in Sprague-Dawley rat model assessed as increase in paw withdrawal latency time at 30 mg/kg, po pre-exposed to thermal stimuli followed by CFA injection and subsequent compound administration; assay type: functional, organism-based; conditions: TDE = time-dependent effect
[5] = test system: Rattus norvegicus; assay: Reversal of complete freund's adjuvant-induced thermal hyperalgesia in Sprague-Dawley rat model assessed as increase in paw withdrawal latency time at 1 to 30 mg/kg, po pre-exposed to thermal stimuli followed by CFA injection and subsequent compound administration relative to control; assay type: functional
[6] = test system: Rattus norvegicus; assay: Reversal of complete freund's adjuvant-induced thermal hyperalgesia in Sprague-Dawley rat model assessed as increase in paw withdrawal latency time at 1 to 30 mg/kg, po pre-exposed to thermal stimuli followed by CFA injection and subsequent compound administration measured after 30 to 180 mins; assay type: functional, organism-based
[7] = test system: Rattus norvegicus; assay: Reversal of complete freund's adjuvant-induced thermal hyperalgesia in po dosed Sprague-Dawley rat model assessed as increase in paw withdrawal latency time pre-exposed to thermal stimuli followed by CFA injection and subsequent compound administration; assay type: functional
[8] = test system: Rattus norvegicus; assay: Reversal of complete freund's adjuvant-induced thermal hyperalgesia in Sprague-Dawley rat model assessed as increase in paw withdrawal latency time at 1 to 30 mg/kg, po pre-exposed to thermal stimuli followed by CFA injection and subsequent compound administration; assay type: functional
[9] = Drug concentration in blood of Sprague-Dawley rat at 1 mg/kg, po; assay type: ADME, organism-based; conditions: in vivo, read-out: Ct
[10] = Drug concentration in blood of Sprague-Dawley rat at 3 mg/kg, po; assay type: ADME, organism-based; conditions: in vivo, read-out: Ct
[11] = Drug concentration in blood of Sprague-Dawley rat at 10 mg/kg, po; assay type: ADME, organism-based; conditions: in vivo, read-out: Ct
[12] = Drug concentration in blood of Sprague-Dawley rat at 30 mg/kg, po; assay type: ADME, organism-based; conditions: in vivo, read-out: Ct
[13] = Drug concentration in brain of Sprague-Dawley rat at 1 mg/kg, po; assay type: ADME, organism-based; conditions: in vivo, read-out: Ct
[14] = Drug concentration in brain of Sprague-Dawley rat at 3 mg/kg, po; assay type: ADME, organism-based; conditions: in vivo, read-out: Ct
[15] = Drug concentration in brain of Sprague-Dawley rat at 10 mg/kg, po; assay type: ADME, organism-based; conditions: in vivo, read-out: Ct
[16] = Drug concentration in brain of Sprague-Dawley rat at 30 mg/kg, po; assay type: ADME, organism-based; conditions: in vivo, read-out: Ct
[17] = test system: Rattus norvegicus; assay: Effect on 2-AG level in brain of Sprague-Dawley rat 1 mg/kg, po (reference value: 11.96 nmol/g); assay type: functional
[18] = test system: Rattus norvegicus; assay: Effect on 2-AG level in brain of Sprague-Dawley rat 3 mg/kg, po (reference value: 11.96 nmol/g); assay type: functional
[19] = test system: Rattus norvegicus; assay: Effect on 2-AG level in brain of Sprague-Dawley rat 10 mg/kg, po (reference value: 11.96 nmol/g); assay type: functional
[20] = test system: Rattus norvegicus; assay: Effect on 2-AG level in brain of Sprague-Dawley rat 30 mg/kg, po (reference value: 11.96 nmol/g); assay type: functional
[21] = biological target: T1, Fatty-acid amide hydrolase 1 (Homo sapiens, UniProt O00519); assay: Inhibition of FAAH (unknown origin)
T1 sequence (O00519 whole entry): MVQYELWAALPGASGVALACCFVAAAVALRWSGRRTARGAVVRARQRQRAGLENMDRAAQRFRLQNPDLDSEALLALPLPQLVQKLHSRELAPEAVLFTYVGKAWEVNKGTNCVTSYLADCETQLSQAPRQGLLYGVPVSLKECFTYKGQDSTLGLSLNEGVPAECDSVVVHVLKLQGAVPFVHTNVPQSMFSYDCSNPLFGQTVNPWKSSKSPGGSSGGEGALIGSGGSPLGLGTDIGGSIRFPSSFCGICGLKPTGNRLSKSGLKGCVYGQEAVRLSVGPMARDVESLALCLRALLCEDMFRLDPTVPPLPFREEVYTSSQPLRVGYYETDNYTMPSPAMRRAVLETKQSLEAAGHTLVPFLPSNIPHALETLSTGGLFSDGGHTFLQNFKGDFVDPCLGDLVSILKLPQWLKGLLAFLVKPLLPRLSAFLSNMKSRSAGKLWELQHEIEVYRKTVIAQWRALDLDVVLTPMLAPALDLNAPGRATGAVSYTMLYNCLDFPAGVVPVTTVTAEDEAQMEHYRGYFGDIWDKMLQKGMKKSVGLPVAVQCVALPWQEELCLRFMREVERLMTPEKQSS

[22] = biological target: Cannabinoid receptor 1 (Homo sapiens, UniProt P21554); assay: Binding affinity to CB1 receptor (unknown origin); assay type: ADME
[23] = biological target: Cannabinoid receptor 2 (Homo sapiens, UniProt P34972); assay: Binding affinity to CB2 receptor (unknown origin); assay type: ADME
[24] = biological target: Tryptase (Homo sapiens) (UniProt Q9BZJ3+Q15661+Q9NRR2); assay: Inhibition of tryptase (unknown origin) at 10 uM relative to control; assay type: protein assay
[25] = species: Homo sapiens; assay: Inhibition of elastase (unknown origin) at 10 uM relative to control
[26] = biological target: Plasminogen (Homo sapiens) (UniProt P00747); assay: Inhibition of plasmin (unknown origin) at 10 uM relative to control
[27] = biological target: Chymotrypsin (Homo sapiens) (UniProt Q99895+P17538+P40313+Q6GPI1); assay: Inhibition of chymotrypsin (unknown origin) at 10 uM relative to control; assay type: protein assay
[28] = biological target: Tissue-type plasminogen activator (Homo sapiens) (UniProt P00750); assay: Inhibition of TPA (unknown origin) at 10 uM relative to control
Chain of Tissue-type plasminogen activator (Homo sapiens) (P00750 36-562 limits assumed): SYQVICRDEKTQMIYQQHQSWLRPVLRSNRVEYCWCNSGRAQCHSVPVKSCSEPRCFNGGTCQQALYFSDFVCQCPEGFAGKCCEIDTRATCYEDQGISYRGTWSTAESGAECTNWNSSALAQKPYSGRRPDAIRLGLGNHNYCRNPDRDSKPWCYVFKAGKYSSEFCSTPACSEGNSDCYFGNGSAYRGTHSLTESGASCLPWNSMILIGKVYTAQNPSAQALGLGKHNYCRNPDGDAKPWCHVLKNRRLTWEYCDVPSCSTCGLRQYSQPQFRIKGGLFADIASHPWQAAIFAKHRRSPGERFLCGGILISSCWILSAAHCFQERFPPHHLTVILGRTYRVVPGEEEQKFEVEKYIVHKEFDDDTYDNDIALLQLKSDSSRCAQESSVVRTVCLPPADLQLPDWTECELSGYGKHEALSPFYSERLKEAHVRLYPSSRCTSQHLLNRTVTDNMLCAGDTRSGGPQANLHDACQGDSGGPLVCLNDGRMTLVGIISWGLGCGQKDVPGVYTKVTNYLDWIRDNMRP

Chain of Plasminogen (Homo sapiens) (P00747 97-580 limits assumed): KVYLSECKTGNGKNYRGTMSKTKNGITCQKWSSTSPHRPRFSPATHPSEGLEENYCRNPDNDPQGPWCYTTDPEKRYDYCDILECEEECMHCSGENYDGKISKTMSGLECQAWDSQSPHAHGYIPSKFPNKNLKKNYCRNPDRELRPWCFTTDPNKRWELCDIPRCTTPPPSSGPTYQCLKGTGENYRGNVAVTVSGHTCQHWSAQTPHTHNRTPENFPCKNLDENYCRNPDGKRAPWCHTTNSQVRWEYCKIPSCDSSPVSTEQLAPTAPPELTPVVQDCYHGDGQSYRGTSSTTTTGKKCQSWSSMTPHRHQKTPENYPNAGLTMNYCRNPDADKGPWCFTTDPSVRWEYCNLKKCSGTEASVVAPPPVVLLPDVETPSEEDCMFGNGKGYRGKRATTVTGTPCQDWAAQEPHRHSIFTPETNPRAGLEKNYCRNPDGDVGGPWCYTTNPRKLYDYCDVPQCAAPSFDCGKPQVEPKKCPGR
Chain of Plasminogen (Homo sapiens) (P00747 581-810 limits assumed): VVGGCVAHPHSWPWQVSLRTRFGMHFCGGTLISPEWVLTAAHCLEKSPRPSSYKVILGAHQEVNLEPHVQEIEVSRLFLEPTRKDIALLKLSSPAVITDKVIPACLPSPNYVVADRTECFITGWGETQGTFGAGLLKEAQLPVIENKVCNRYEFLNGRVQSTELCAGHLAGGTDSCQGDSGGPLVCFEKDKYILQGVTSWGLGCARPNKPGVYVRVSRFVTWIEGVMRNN
Chain of Cannabinoid receptor 1 (P21554 whole entry): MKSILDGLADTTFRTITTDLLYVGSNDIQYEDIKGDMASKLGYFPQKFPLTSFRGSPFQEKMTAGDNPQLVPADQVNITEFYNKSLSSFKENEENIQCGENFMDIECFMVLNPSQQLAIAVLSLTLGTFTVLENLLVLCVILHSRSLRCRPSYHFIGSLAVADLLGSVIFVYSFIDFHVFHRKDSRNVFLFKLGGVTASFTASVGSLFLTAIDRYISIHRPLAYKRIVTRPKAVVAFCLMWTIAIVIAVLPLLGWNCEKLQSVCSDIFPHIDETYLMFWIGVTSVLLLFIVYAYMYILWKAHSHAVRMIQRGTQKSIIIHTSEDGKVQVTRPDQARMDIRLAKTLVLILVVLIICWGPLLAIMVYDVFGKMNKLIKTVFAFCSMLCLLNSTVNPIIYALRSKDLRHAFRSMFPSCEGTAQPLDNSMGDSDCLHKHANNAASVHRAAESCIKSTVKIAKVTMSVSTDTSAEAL
Chain of Cannabinoid receptor 2 (P34972 whole entry): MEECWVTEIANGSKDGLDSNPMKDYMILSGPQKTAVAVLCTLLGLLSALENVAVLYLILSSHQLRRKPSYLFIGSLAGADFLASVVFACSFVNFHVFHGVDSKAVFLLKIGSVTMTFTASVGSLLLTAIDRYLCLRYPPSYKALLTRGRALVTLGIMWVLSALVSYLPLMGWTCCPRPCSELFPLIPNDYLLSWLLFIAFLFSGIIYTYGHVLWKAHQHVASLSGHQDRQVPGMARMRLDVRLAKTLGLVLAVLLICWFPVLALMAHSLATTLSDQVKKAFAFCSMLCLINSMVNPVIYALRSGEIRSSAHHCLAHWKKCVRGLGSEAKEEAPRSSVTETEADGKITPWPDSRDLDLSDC

Compound: O=C(c1ccc2c(ccn2-c2ccc(F)cc2)c1)N1CC(N2CCN(C(=O)c3nccs3)CC2)C1
- bioavailability [1]: 45%
- Tmax [2]: 1.75 h
- Cmax [3]: 710 ng/mL
- Activity [4]: Tde
- Activity [5]: 100%
- Activity [6]: Active
- ED50 [7]: 3 mg/kg
- Time [8]: 100 min
- concentration [9]: 24.9 nM
- concentration [10]: 135 nM
- concentration [11]: 519 nM
- concentration [12]: 3070 nM
- concentration [13]: 142 nM
- concentration [14]: 339 nM
- concentration [15]: 668 nM
- concentration [16]: 3540 nM
- Activity [17]: 19.28 nmol/g
- Activity [18]: 33.01 nmol/g
- Activity [19]: 46.43 nmol/g
- Activity [20]: 108.4 nmol/g
- IC50 [21]: 4 µM
- IC50 [22]: > 10 µM
- IC50 [23]: > 10 µM
- inhibition [24]: 2%
- inhibition [25]: 4%
- inhibition [26]: 4%
- inhibition [27]: -3%
- inhibition [28]: 6%
